In brackets after ≈: the same amount, converted by molar mass. Where two headings read alike, the source gives them in different places.
Assays:
[1] = test system: Escherichia coli; conditions: 37° C., 24 h
Procedure: (§4) Prepare Escherichia coli, Candida albicans, Staphylococcus aureus, Bacillus subtilis, Staphylococcus haemolyticus, Staphylococcus epidermidis, Staphylococcus cohnii solutions respectively, incubate at 37° C. for 18 h, for standby;
(§5) Prepare Broth Agar Medium, and sterilize it for standby;
(§6) Dissolve the Broth Agar Medium, cool down to 50° C., add 1 ml of Escherichia coli, Candida albicans, Staphylococcus aureus, Bacillus subtilis, Staphylococcus haemolyticus, Staphylococcus epidermidis, Staphylococcus cohnii solutions respectively, shake gently and pour into a sterile petri dish, gently shake the medium to evenly pave on the dish;
(§7) Place the filters into a cooled dish using a sterile tweezer orderly, cover with a tile cover and mark, then place to a 37° C. incubator for incubation for 24 h;

[2] = test system: gastric cancer cell SGC7901
Procedure: 1. Collect the gastric cancer cell SGC7901 in the logarithmic phase to prepare cell suspension, adjust its concentration to 5×10^6-10×10^6/ml, add 100 ul to each hole, pave the plate to adjust the cell density to 1000-10000 holes; fill the holes on the edges with sterile PBS;
(§1) 2. Incubate cells under the condition of 5% CO2 and 37° C. until the cell monolayer are paved on 96-hole plate bottom; after cell adhesion for 2-12 h, add the low molecular polypeptide ZY4 at a concentration of 50-300 ug/ml, and the same volume of NS as control, to incubate for 16-48 h under the condition of 5% CO2 and 37° C., and then observe under an inverted microscope;
(§2) 3. Add 20 ul of 5 mg/ml MTT solution to each hole, to continue to culture 4 h, and then draw the culture solution in the hole;
(§3) 4. Add 150 ul of DMSO to each hole, place to a shaker for oscillation 10 min at a low speed, to allow the crystals fully dissolved, measure the absorbance values of each hole at OD 490 nm using a ELISA Reader; at the same time, set the zero hole and control hole.

[3] = test system: Staphylococcus aureus; conditions: 37° C., 24 h
Procedure: as §4, §5, §6, §7

[4] = test system: melanoma cell A357; conditions: NS control 1.0
Procedure: 1. Collect the melanoma cell A357 in the logarithmic phase to prepare cell suspension, adjust its concentration to 5×10^6-10×10^6/ml, add 100 ul to each hole, pave the plate to adjust the cell density to 1000-10000 holes; fill the holes on the edges with sterile PBS;
as §1, with “100 ug/ml and 200” for “50-300”
as §2, §3

[5] = test system: Candida albicans; conditions: 37° C., 24 h
Procedure: as §4, §5, §6, §7

[6] = test system: P. acnes ATCC6919; conditions: 2 mg/ml ointment on left ear skin, treated for 1 day; 0.20 mm before treatment, PEG control 0.43 mm
Procedure: Select Kunming male mice at a weight of 18 g each, and randomly divide them into 3 groups, 9 mice each group, respectively the treatment group, positive control group, negative control group. Each mouse is anaesthetized with 50 ul of ketamine by intraperitoneal injection, and then injected with 20 ul of resuspended bacteria solution via intracutaneous injection in the left ear of each mouse;
Disinfect the left ears of mice with a clean alcohol cotton ball, and measure the thickness of the ears of mice, results are shown in FIG. 2.

[7] = test system: Staphylococcus aureus (09B2499); conditions: 37° C., 24 h
Procedure: as §4, §5, §6, §7

[8] = test system: liver cancer cell HepG2; conditions: NS control 1.0
Procedure: 1. Collect the liver cancer cell HepG2 in the logarithmic phase to prepare cell suspension, adjust its concentration to 5×10^6-10×10^6/ml, add 100 ul to each hole, pave the plate to adjust the cell density to 1000-10000 holes; fill the holes on the edges with sterile PBS;
as §1, with “100 ug/ml and 200” for “50-300”
as §2, §3

[9] = test system: Staphylococcus epidermidis (09A3726 anti-ampicillin); conditions: 37° C., 24 h
Procedure: as §4, §5, §6, §7

[10] = test system: Staphylococcus cohnii (09B2490 anti-ampicillin); conditions: 37° C., 24 h
Procedure: as §4, §5, §6, §7

[11] = test system: Bacillus subtilis; conditions: 37° C., 24 h
Procedure: as §4, §5, §6, §7

[12] = test system: breast cancer cell MDA-435
Procedure: 1. Collect the breast cancer cell MDA-435 in the logarithmic phase to prepare cell suspension, adjust its concentration to 5×10^6-10×10^6/ml, add 100 ul to each hole, pave the plate to adjust the cell density to 1000-10000 holes; fill the holes on the edges with sterile PBS;
as §1, §2, §3

[13] = test system: Staphylococcus haemolyticus (09A4394 anti-ampicillin); conditions: 37° C., 24 h
Procedure: as §4, §5, §6, §7

[14] = test system: P. acnes ATCC11817; conditions: 2 mg/ml ointment on left ear skin, once every 8 h, 3 times, mice sacrificed 24 h later; PEG control 9.44×10^5
Procedure: Select Kunming male mice at a weight of 18 g each, and randomly divide them into 3 groups, 6 mice each group, respectively the treatment group, positive control group, negative control group. Each mouse is anaesthetized with 120 ul of 1% pentobarbital sodium by intraperitoneal injection, and then injected with 20 ul of resuspended bacteria solution via intracutaneous injection in the left ear of each mouse;
Disinfect the left ears of mice with a clean alcohol cotton ball, cut off the left ears into pieces, transfer to a homogenizer for homogenization. Add 1 ml of NS for homogenization for one ear;
Dilute the homogenate to 1,000-fold, take 50 ul of diluent and apply to a brain heart infusion agar plate, culture at 37° C. under the anaerobic condition for 72 h, and count the colonies.

[15] = test system: lung cancer cell A549; test: MTT assay against lung cancer cell A549; assay type: cell-based
Procedure: 1. Collect the lung cancer cell A549 in the logarithmic phase to prepare cell suspension, adjust its concentration to 5×10^6-10×10^6/ml, add 100 ul to each hole, pave the plate to adjust the cell density to 1000-10000 holes; fill the holes on the edges with sterile PBS;
as §1, with “100 ug/ml and 200” for “50-300”, “ug/ml, paclitaxel at a concentration of 10 ug/ml” for “ug/ml,”, “5 ug/ml” for “the same volume of NS as control,”
as §2, §3

## CC(C)[C@H](N)C(=O)N[C@H]1CSSC[C@@H](C(=O)N[C@H](C(N)=O)C(C)C)NC(=O)[C@H](Cc2c[nH]c3ccccc23)NC(=O)[C@H](CCCCN)NC(=O)[C@H](CCCCN)NC(=O)[C@H](Cc2c[nH]c3ccccc23)NC(=O)[C@H](CCCCN)NC(=O)[C@H](CCCNC(=N)N)NC(=O)[C@H](CCCCN)NC(=O)[C@H](Cc2c[nH]c3ccccc23)NC(=O)[C@H](CCCCN)NC(=O)[C@H](CCCCN)NC(=O)[C@H](Cc2c[nH]c3ccccc23)NC(=O)[C@H](CCCNC(=N)N)NC(=O)[C@H](CCCCN)NC1=O [ZY4]
[1]
  Minimum inhibitory concentration: 12.15 µg/mL (≈ 5.12 µM)
[2]; SGC7901, 50 ug/ml ZY4, 16-48 h
  OD value (MTT, OD 490 nm): 0.65
[2]; SGC7901, 100 ug/ml ZY4, 16-48 h
  OD value (MTT, OD 490 nm): 0.57
[2]; SGC7901, 200 ug/ml ZY4, 16-48 h
  OD value (MTT, OD 490 nm): 0.2
[2]; SGC7901, 300 ug/ml ZY4, 16-48 h
  OD value (MTT, OD 490 nm): 0.09
[3]
  Minimum inhibitory concentration: 2.14 µg/mL (≈ 0.901 µM)
[4]; A357, 100 ug/ml ZY4, 16-48 h
  OD value (MTT, OD 490 nm): 1.0
[4]; A357, 200 ug/ml ZY4, 16-48 h
  OD value (MTT, OD 490 nm): 0.72
[5]
  Minimum inhibitory concentration: 2.12 µg/mL (≈ 0.893 µM)
[6]
  thickness of mice ear: 0.25 mm
[7]
  Minimum inhibitory concentration: 2.25 µg/mL (≈ 0.948 µM)
[8]; HepG2, 100 ug/ml ZY4, 16-48 h
  OD value (MTT, OD 490 nm): 0.89
[8]; HepG2, 200 ug/ml ZY4, 16-48 h
  OD value (MTT, OD 490 nm): 0.6
[9]
  Minimum inhibitory concentration: 2.45 µg/mL (≈ 1.03 µM)
[10]
  Minimum inhibitory concentration: 1.10 µg/mL (≈ 0.463 µM)
[11]
  Minimum inhibitory concentration: 1.10 µg/mL (≈ 0.463 µM)
[12]; MDA-435, 50 ug/ml ZY4, 16-48 h
  OD value (MTT, OD 490 nm): 0.7
[12]; MDA-435, 100 ug/ml ZY4, 16-48 h
  OD value (MTT, OD 490 nm): 0.61
[12]; MDA-435, 200 ug/ml ZY4, 16-48 h
  OD value (MTT, OD 490 nm): 0.20
[12]; MDA-435, 300 ug/ml ZY4, 16-48 h
  OD value (MTT, OD 490 nm): 0.17
[13]
  Minimum inhibitory concentration: 2.17 µg/mL (≈ 0.914 µM)
[14]
  CFU of P. acnes after treatment: 2.1×10^5 CFU
[15]; A549, 100 ug/ml ZY4, 16-48 h
  OD value (MTT, OD 490 nm): 0.5
[15]; A549, 200 ug/ml ZY4, 16-48 h
  OD value (MTT, OD 490 nm): 0.3

## CC(=O)O[C@H]1C(=O)[C@@]2(C)[C@H]([C@H](OC(=O)c3ccccc3)[C@]3(O)C[C@H](OC(=O)[C@H](O)[C@@H](NC(=O)c4ccccc4)c4ccccc4)C(C)=C1C3(C)C)[C@]1(OC(C)=O)CO[C@@H]1C[C@@H]2O [paclitaxel, reference compound]
[15]; A549, 10 ug/ml paclitaxel (first statement), 16-48 h
  OD value (MTT, OD 490 nm): 0.5
[15]; A549, 10 ug/ml paclitaxel (second statement), 16-48 h
  OD value (MTT, OD 490 nm): 0.7
